Experiments:
Experiment in all cases: relative viability (nuclei count vs DMSO), 5 days (fraction); higher = more cells survive
[1] = compound: CN(C)CC1=CC(=CC=C1)N=C(C2=CC=CC=C2)C3=C(NC4=C3C=CC(=C4)C(=O)N(C)C)O + C[C@@H](Oc1cc(-c2cnn(C3CCNCC3)c2)cnc1N)c1c(Cl)ccc(F)c1Cl [Crizotinib] (partner 1 µM)
Method in brief: (§1)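 Medians of duplicate plates are given as relative viability. That measure is the nuclei count in treated wells divided by the count in vehicle wells. Counts were taken on 4× images of lung cancer cell lines in 1536-well plates, 5 days after pin-tool dosing the day after seeding with one drug alone or a fixed anchor-drug dose plus five library-drug doses (not always all listed) in √10 steps.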

[2] = compound: CN(C)CC1=CC(=CC=C1)N=C(C2=CC=CC=C2)C3=C(NC4=C3C=CC(=C4)C(=O)N(C)C)O + C[C@]1(O)C[C@@H](c2nc(-c3ccc4ccc(-c5ccccc5)nc4c3)c3c(N)nccn32)C1 [Linsitinib] (partner 1 µM)
Method in brief: as §1

[3] = compound: CN(C)CC1=CC(=CC=C1)N=C(C2=CC=CC=C2)C3=C(NC4=C3C=CC(=C4)C(=O)N(C)C)O + COc1cccc2cc(-c3nc([C@H]4CC[C@H](C(=O)O)CC4)n4ncnc(N)c34)[nH]c12 [OSI-027] (partner 0.5 µM)
Method in brief: as §1

[4] = compound: CN(C)CC1=CC(=CC=C1)N=C(C2=CC=CC=C2)C3=C(NC4=C3C=CC(=C4)C(=O)N(C)C)O + Cc1cc(Nc2cc(N3CCN(C)CC3)nc(Sc3ccc(NC(=O)C4CC4)cc3)n2)n[nH]1 [Tozasertib] (partner 0.1 µM)
Method in brief: as §1

Row | Cell Line | relative viability ([1]; first compound 0.08 µM) | relative viability ([1]; first compound 0.253 µM) | relative viability ([1]; first compound 0.8 µM) | relative viability ([1]; first compound 2.53 µM) | relative viability ([1]; first compound 8 µM) | relative viability ([2]; first compound 0.08 µM) | relative viability ([2]; first compound 0.253 µM) | relative viability ([2]; first compound 0.8 µM) | relative viability ([2]; first compound 2.53 µM) | relative viability ([2]; first compound 8 µM) | relative viability ([3]; first compound 0.08 µM) | relative viability ([3]; first compound 0.253 µM) | relative viability ([3]; first compound 0.8 µM) | relative viability ([3]; first compound 2.53 µM) | relative viability ([3]; first compound 8 µM) | relative viability ([4]; first compound 0.08 µM) | relative viability ([4]; first compound 0.253 µM) | relative viability ([4]; first compound 0.8 µM) | relative viability ([4]; first compound 2.53 µM) | relative viability ([4]; first compound 8 µM)
1 | PC-14 | 0.948 | 0.885 | 0.842 | 0.786 | 1.01 | 0.98 | 0.954 | 0.96 | 0.874 | 0.998 | 0.913 | 0.85 | 0.968 | 0.734 | 0.563 | 0.564 | 0.604 | 0.618 | 0.531 | 0.649
2 | NCI-H2126 | 1.04 | 1.01 | 1.07 | 1.01 | 1.01 | 0.701 | 0.668 | 0.679 | 0.759 | 0.686 | 0.612 | 0.745 | 0.812 | 0.8 | 0.676 | 0.961 | 0.849 | 0.856 | 0.825 | 0.837
3 | NCI-H1395 | – | – | – | – | – | 1.08 | 0.838 | 1.08 | 0.788 | 0.995 | 0.647 | 0.813 | 0.711 | 0.62 | 0.628 | 0.85 | 0.831 | 0.789 | 0.746 | 0.771
4 | NCI-H1648 | – | – | – | – | – | – | – | – | – | – | 0.266 | – | 0.308 | 0.277 | 0.252 | 0.419 | – | 0.572 | 0.383 | 0.396
5 | NCI-H596 | 1 | 0.952 | 1.04 | 0.968 | 0.785 | 1.11 | 1.07 | 1.06 | 1 | 1.11 | 0.738 | 1.03 | 0.639 | 0.744 | 0.659 | 0.898 | 0.851 | 0.826 | 0.847 | 0.906
6 | A549 | 0.847 | 0.683 | 0.818 | 0.686 | 0.731 | 0.595 | 0.575 | 0.518 | 0.544 | 0.475 | – | – | – | – | – | – | – | – | – | –
7 | LCLC-103H | 1.14 | 1.06 | 0.914 | 1.02 | 0.979 | 1.15 | 1.11 | 0.941 | 0.904 | 0.908 | 0.452 | 0.538 | 0.493 | 0.493 | 0.452 | 0.455 | 0.524 | 0.551 | 0.516 | 0.509
8 | EMC-BAC-2 | 0.725 | 0.772 | 0.804 | 0.753 | 0.681 | 0.884 | 0.797 | 0.778 | 0.787 | 0.717 | 0.369 | 0.416 | 0.392 | 0.356 | 0.391 | 0.297 | 0.283 | 0.383 | 0.258 | 0.267
9 | EBC-1 | 0.186 | 0.212 | 0.21 | 0.184 | 0.196 | 1.02 | 0.964 | 1.05 | 1 | 1.08 | – | – | – | – | – | – | – | – | – | –
10 | NCI-H1915 | 0.886 | 0.885 | 0.989 | 0.832 | 0.848 | 1.09 | 1.12 | 1.15 | 1.02 | 1.11 | 0.635 | 0.643 | 0.71 | 0.659 | 0.575 | 0.474 | 0.409 | 0.432 | 0.407 | 0.414
